These results are taken from patent US10011591B2, “Crystalline form of afatinib dimaleate” (Sun Pharmaceutical Industries Limited, priority 2014, dated 2018).

The data set can be described thus: Storage stability towards polymorphic conversion, triple layer package. It counts as physicochemical. To be noted: 25° C. ±2° C. and 60% ±5% relative humidity for two months under triple layer package.

Source text: The term “triple layer package,” as used herein, refers to the afatinib dimaleate being packed in a low density polyethylene (LDPE) pouch, then inserted and heat sealed under vacuum in a bag with a mixture of polyester/LDPE with silica sachet as a desiccant, and then further inserted and heat sealed under vacuum into an outer bag with a mixture of polyester film/aluminum foil/polyester LDPE.

Regarding `CN(C)C/C=C/C(=O)Nc1cc2c(Nc3ccc(F)c(Cl)c3)ncnc2cc1O[C@H]1CCOC1.O=C(O)/C=C\C(=O)O.O=C(O)/C=C\C(=O)O` [crystalline Form I of afatinib dimaleate, 2-butenamide, N-[4-[(3-chloro-4-fluorophenyl)amino]-7-[[(3S)-tetrahydro-3-furanyl]oxy]-6-quinazolinyl]-4-(dimethylamino)-,(2E)-, (2Z)-2-butenedioate (1:2)], the “polymorphic form stability on storage (conversion to any other form)” value is “not converted to any other form of afatinib dimaleate”.
